# Numbers after ± are expanded uncertainties.
# Tests used:
# [1] = 298.2 K; 101.33 kPa; Liquid; Vibrating tube method
# [2] = refractive index (Na D-line) (dimensionless); settings: 298.2 K; 101.33 kPa; Liquid; Standard Abbe refractometry
SMILES,mass density [1] [kg/m3],refractive index [2]
CC(C)CCO [3-methylbutan-1-ol],807.16 ± 0.35,1.40528 ± 0.00042
CCOC(=O)CCCCCCCCC(=O)OCC [diethyl decanedioate],959.18 ± 0.37,1.43485 ± 0.00042
CCOC(=O)CCC(=O)OCC [diethyl butanedioate],1035.34 ± 0.4,1.41967 ± 0.00042
CCCCC(=O)OCC [ethyl pentanoate],872.36 ± 0.36,1.39841 ± 0.00042
O=CO [formic acid],1214.1 ± 0.51,1.36939 ± 0.00042
CCCCCCCC(=O)OCC [ethyl octanoate],862.23 ± 0.36,1.41572 ± 0.00042
